We go through 19 compounds from patent publication US11077115B2, “Rorgamma modulators and uses thereof” (Genfit, priority 2017, dated 2021).

Counter-ions that a name gives are not always drawn.

As usually defined, the melting point is the temperature, or range, at which the solid turns liquid. Consider `Cc1ccc(C(NC(=O)Cc2ccc(N3CCS(=O)(=O)CC3)c(C)c2)c2ccc(C)o2)c(C(F)(F)F)c1` (stereo not shown) (as salt: HCl) [Cpd. 10, 2-[4-(1,1-dioxo-1-thiomorpholin-4-yl)-3-methylphenyl]-N-{[4-methyl-2-(trifluoromethyl)phenyl](5-methylfuran-2-yl)methyl}acetamide], for which the melting point worked out at 99 °C. Take `Cc1ccc(C(NC(=O)Cc2ccc(N3CCS(=O)(=O)CC3)cc2)c2ccc(C)o2)c(N2CCCCC2)c1` (stereo not shown) (as salt: HCl) [Cpd. 6, 2-[4-(1,1-dioxo-1-thiomorpholin-4-yl)phenyl]-N-{[4-methyl-2-(piperidin-1-yl)phenyl](5-methylfuran-2-yl)methyl}acetamide]: the melting point was 101 °C.

Regarding `Cc1ccc(C(NC(=O)C2(c3ccc(N4CCS(=O)(=O)CC4)c(C)n3)CC2)c2ccc(C)o2)c(C)c1` (stereo not shown) (as salt: HCl) [Cpd. 71, N-[(2,4-dimethylphenyl)(5-methylfuran-2-yl)methyl]-1-[5-(1,1-dioxo-1-thiomorpholin-4-yl)-6-methylpyridin-2-yl]cyclopropane-1-carboxamide], the melting point came to 74 °C. The compound `Cc1ccc(C(NC(=O)C2(c3ccc(N4CCS(=O)(=O)CC4)cc3)CCC2)c2ccc(C)o2)c(C)c1` (stereo not shown) (as salt: HCl) [Cpd. 41, N-[(2,4-dimethylphenyl)(5-methylfuran-2-yl)methyl]-1-[4-(1,1-dioxo-1-thiomorpholin-4-yl)phenyl]cyclobutane-1-carboxamide] had a melting point of 79 °C. In turn, `COc1ccc(C(NC(=O)C2(c3ccc(N4CCS(=O)(=O)CC4)cc3)CC2)c2ccc(C)o2)c(C)c1` (stereo not shown) (as salt: HCl) [Cpd. 44, 1-[4-(1,1-dioxo-1-thiomorpholin-4-yl)phenyl]-N-[(4-methoxy-2-methylphenyl)(5-methylfuran-2-yl)methyl]cyclopropane-1-carboxamide] showed a melting point of 77 °C. `Cc1ccc(C(NC(=O)Cc2ccc(CO)c(N3CCS(=O)(=O)CC3)c2)c2ccc(C)o2)c(N2CCCCC2)c1` (stereo not shown) (as salt: HCl) [Cpd. 63, 2-[3-(1,1-dioxo-1-thiomorpholin-4-yl)-4-(hydroxymethyl)phenyl]-N-{[4-methyl-2-(piperidin-1-yl)phenyl](5-methylfuran-2-yl)methyl}acetamide] came in with a melting point of 100 °C.

`Cc1ccc(C(NC(=O)C2(c3ccc(N4CCS(=O)(=O)CC4)cc3)CC2)c2ccc(Cl)o2)cc1` (stereo not shown) (as salt: HCl) [Cpd. 67, N-[(5-chlorofuran-2-yl)(4-methylphenyl)methyl]-1-[4-(1,1-dioxo-1-thiomorpholin-4-yl)phenyl]cyclopropane-1-carboxamide]: the melting point worked out at 157 °C.

In turn, `Cc1ccc(C(NC(=O)Cc2cnc(N3CCS(=O)(=O)CC3)nc2)c2ccc(C)o2)c(N2CCCCC2)c1` (stereo not shown) (as salt: HCl) [Cpd. 20, 2-[2-(1,1-dioxo-1-thiomorpholin-4-yl)pyrimidin-5-yl]-N-{[4-methyl-2-(piperidin-1-yl)phenyl](5-methylfuran-2-yl)methyl}acetamide] gave a melting point of 91 °C.

`Cc1ccc(C(NC(=O)C2(c3ccc(N4CCS(=O)(=O)CC4)cn3)CC2)c2ccc(C)o2)c(C)c1` (stereo not shown) (as salt: HCl) [Cpd. 73, N-[(2,4-dimethylphenyl)(5-methylfuran-2-yl)methyl]-1-[5-(1,1-dioxo-1-thiomorpholin-4-yl)pyridin-2-yl]cyclopropane-1-carboxamide]: the melting point was determined as 71 °C. Turning to `COc1ccc(C(NC(=O)Cc2ccc(N3CCS(=O)(=O)CC3)c(C)c2)c2ccc(C)o2)c(N2CCC(C)CC2)c1` (stereo not shown) (as salt: HCl) [Cpd. 13, 2-[4-(1,1-dioxo-1-thiomorpholin-4-yl)-3-methylphenyl]-N-{[4-methoxy-2-(4-methylpiperidin-1-yl)phenyl](5-methylfuran-2-yl)methyl}acetamide], the melting point worked out at 101 °C. `Cc1ccc(C(NC(=O)C2(c3cnc(N4CCS(=O)(=O)CC4)nc3)CC2)c2ccc(C)o2)c(C)c1` (stereo not shown) (as salt: HCl) [Cpd. 48, N-[(2,4-dimethylphenyl)(5-methylfuran-2-yl)methyl]-1-[2-(1,1-dioxo-1-thiomorpholin-4-yl)pyrimidin-5-yl]cyclopropane-1-carboxamide] had a melting point of 82 °C. Compound `Cc1ccc(C(NC(=O)Cc2cnc(N3CCS(=O)(=O)CC3)nc2C)c2ccc(C)o2)c(N2CCCCC2)c1` (stereo not shown) (as salt: HCl) [Cpd. 38, 2-[2-(1,1-dioxo-1-thiomorpholin-4-yl)-4-methylpyrimidin-5-yl]-N-{[4-methyl-2-(piperidin-1-yl)phenyl](5-methylfuran-2-yl)methyl}acetamide] returned a melting point of 99 °C. The compound `Cc1ccc(C(NC(=O)Cc2ccc(N3CCS(=O)(=O)CC3)cc2)c2ccccc2)c(N2CC3CC3C2)c1` (stereo not shown) (as salt: HCl) [Cpd. 22, N-[(2-{3-azabicyclo[3.1.0]hexan-3-yl}-4-methylphenyl)(phenyl)methyl]-2-[4-(1,1-dioxo-1-thiomorpholin-4-yl)phenyl]acetamide] returned a melting point of 104 °C. Consider `Cc1ccc(C(NC(=O)Cc2ccc(N3CCS(=O)(=O)CC3)cc2)c2ccccc2)c(Br)c1` (stereo not shown) (as salt: HCl) [Cpd. 9, N-[(2-bromo-4-methylphenyl)(phenyl)methyl]-2-[4-(1,1-dioxo-1-thiomorpholin-4-yl)phenyl]acetamide], for which the melting point was determined as 142 °C. For `Cc1ccc(C(NC(=O)C2(c3ccc(N4CCS(=O)(=O)CC4)cc3)CC2)c2ccc(Cl)o2)c(C)c1` (stereo not shown) (as salt: HCl) [Cpd. 66, N-[(5-chlorofuran-2-yl)(2,4-dimethylphenyl)methyl]-1-[4-(1,1-dioxo-1-thiomorpholin-4-yl)phenyl]cyclopropane-1-carboxamide] the value was 76 °C. The compound `Cc1ccc(C(NC(=O)Cc2cc(N3CCS(=O)(=O)CC3)ccc2C)c2ccc(C)o2)c(N2CCCCC2)c1` (stereo not shown) (as salt: HCl) [Cpd. 5, 2-[5-(1,1-dioxo-1-thiomorpholin-4-yl)-2-methylphenyl]-N-{[4-methyl-2-(piperidin-1-yl)phenyl](5-methylfuran-2-yl)methyl}acetamide] gave a melting point of 101 °C. `COc1ccc(C(NC(=O)Cc2cnc(N3CCS(=O)(=O)CC3)nc2)c2ccc(C)o2)c(N2CCCCCC2)c1` (stereo not shown) (as salt: HCl) [Cpd. 45, N-{[2-(azepan-1-yl)-4-methoxyphenyl](5-methylfuran-2-yl)methyl}-2-[2-(1,1-dioxo-1-thiomorpholin-4-yl)pyrimidin-5-yl]acetamide] had a melting point of 106 °C.

For `Cc1ccc(C(NC(=O)Cc2cnc(N3CCS(=O)(=O)CC3)nc2)c2ccc(C)o2)c(Br)c1` (stereo not shown) (as salt: HCl) [Cpd. 34, N-[(2-bromo-4-methylphenyl)(5-methylfuran-2-yl)methyl]-2-[2-(1,1-dioxo-1-thiomorpholin-4-yl)pyrimidin-5-yl]acetamide], the melting point was 199 °C. For the compound `Cc1ccc(C(NC(=O)Cc2cc(N3CCS(=O)(=O)CC3)ccc2F)c2ccccc2)c(N2CCOCC2)c1` (stereo not shown) (as salt: HCl) [Cpd. 4, 2-[5-(1,1-dioxo-1-thiomorpholin-4-yl)-2-fluorophenyl]-N-{[4-methyl-2-(morpholin-4-yl)phenyl](phenyl)methyl}acetamide], the melting point was determined as 207 °C.
